Measured values taken from PMC4976367, “Dimethyl fumarate blocks pro-inflammatory cytokine production via inhibition of TLR induced M1 and K63 ubiquitin chain formation” (Scientific Reports, 2016).
Counter-ions that a name gives are not always drawn.

Tests used:
Type in all cases: biochemical
[1] = target: T1, Ubc13 (Homo sapiens, UniProt P61088); experiment: MALDI-TOF intact mass shift (covalent adduct, +[…] Da); IC50 from E2 ubiquitin loading assay with purified UBE1 and E2
T1 construct: gene UBE2N; recombinant Ubc13
T1 sequence (P61088 1-152): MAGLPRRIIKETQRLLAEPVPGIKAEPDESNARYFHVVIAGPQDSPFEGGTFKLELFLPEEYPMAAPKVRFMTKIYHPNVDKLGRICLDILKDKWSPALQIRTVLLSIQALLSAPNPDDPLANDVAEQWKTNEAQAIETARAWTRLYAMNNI

[2] = target: T2, UbcH7 (Homo sapiens, UniProt P68036); experiment: MALDI-TOF intact mass shift (covalent adducts, +[…] and +[…] Da); IC50 from E2 ubiquitin loading assay with purified UBE1 and E2
T2 construct: gene UBE2L3; recombinant UbcH7
T2 sequence (P68036 whole entry, one chain of several): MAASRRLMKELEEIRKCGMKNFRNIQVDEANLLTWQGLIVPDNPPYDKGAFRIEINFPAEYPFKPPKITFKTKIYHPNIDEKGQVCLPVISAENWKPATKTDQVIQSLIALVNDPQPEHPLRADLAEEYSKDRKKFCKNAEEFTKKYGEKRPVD

[3] = target: T3, Ube2T (Homo sapiens, UniProt Q9NPD8); experiment: E2 ubiquitin loading assay, panel of […] E2s at two fixed DMF concentrations
T3 sequence (Q9NPD8 1-197): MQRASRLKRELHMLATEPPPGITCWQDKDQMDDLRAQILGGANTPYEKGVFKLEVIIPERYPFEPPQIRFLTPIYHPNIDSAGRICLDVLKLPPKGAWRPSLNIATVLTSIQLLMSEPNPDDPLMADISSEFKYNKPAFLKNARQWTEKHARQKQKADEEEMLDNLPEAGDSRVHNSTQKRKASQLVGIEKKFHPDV

[4] = target: T4, Ube2R1 (Homo sapiens, UniProt P49427); experiment: as above
T4 construct: gene CDC34
T4 sequence (P49427 1-236): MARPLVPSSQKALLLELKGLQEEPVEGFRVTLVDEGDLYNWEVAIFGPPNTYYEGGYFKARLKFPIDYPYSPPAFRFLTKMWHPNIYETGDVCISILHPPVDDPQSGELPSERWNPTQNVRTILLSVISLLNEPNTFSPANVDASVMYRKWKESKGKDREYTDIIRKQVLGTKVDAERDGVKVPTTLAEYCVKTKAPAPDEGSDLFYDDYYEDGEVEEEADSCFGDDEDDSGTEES

[5] = target: T5, Ube2S (Homo sapiens, UniProt Q16763); experiment: as above
T5 sequence (Q16763 1-222): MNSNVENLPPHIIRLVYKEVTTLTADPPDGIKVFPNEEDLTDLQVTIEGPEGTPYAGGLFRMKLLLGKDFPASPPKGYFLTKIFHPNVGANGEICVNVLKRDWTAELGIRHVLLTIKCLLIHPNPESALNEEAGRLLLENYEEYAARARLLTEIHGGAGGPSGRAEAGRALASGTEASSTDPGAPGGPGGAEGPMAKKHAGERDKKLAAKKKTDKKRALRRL
T5 sequence (P22314 2-1058 partner): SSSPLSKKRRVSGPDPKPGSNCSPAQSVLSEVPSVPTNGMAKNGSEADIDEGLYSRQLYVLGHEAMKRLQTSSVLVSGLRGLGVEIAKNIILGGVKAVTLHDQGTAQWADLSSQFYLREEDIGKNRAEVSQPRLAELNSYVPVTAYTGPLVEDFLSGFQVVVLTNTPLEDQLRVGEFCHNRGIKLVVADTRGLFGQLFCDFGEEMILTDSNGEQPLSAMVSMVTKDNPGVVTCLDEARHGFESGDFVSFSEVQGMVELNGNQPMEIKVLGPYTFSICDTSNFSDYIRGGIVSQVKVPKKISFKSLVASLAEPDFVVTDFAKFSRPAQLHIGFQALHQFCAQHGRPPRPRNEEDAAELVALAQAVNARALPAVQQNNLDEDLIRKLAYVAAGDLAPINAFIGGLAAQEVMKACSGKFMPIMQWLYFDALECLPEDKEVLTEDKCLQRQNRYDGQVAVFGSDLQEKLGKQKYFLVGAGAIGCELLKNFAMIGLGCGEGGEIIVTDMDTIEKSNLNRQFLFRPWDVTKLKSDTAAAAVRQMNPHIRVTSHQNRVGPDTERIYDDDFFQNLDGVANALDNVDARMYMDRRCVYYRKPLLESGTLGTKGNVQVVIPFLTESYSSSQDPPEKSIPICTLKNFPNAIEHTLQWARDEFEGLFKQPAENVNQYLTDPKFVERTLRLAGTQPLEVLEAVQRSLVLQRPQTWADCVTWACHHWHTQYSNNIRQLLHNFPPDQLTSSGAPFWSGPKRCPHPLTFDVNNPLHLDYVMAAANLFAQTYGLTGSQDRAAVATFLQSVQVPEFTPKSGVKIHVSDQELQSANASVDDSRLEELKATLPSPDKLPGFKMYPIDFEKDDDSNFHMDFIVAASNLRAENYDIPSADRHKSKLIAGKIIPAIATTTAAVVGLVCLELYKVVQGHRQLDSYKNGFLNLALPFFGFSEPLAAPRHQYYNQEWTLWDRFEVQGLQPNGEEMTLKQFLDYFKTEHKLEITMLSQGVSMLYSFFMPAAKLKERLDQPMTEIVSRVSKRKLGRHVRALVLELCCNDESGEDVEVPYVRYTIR

[6] = target: Ube2W (Homo sapiens, UniProt Q96B02); experiment: as above
Sequence of Ube2W (Q96B02 whole entry, one chain of several): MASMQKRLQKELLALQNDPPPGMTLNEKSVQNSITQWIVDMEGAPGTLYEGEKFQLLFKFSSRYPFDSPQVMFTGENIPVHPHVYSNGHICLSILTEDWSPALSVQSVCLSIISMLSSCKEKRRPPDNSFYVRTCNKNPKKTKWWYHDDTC

COC(=O)/C=C/C(=O)OC [Dimethyl fumarate]
IC50 [1]: 10 to 20 µM
IC50 [2]: < 10 µM
E2 ubiquitin loading assay, panel of 24 E2s at two fixed DMF concentrations [3]: UbcH7, Ube2W, Ube2T, Ube2S and Ube2R1 being most strongly inhibited
E2 ubiquitin loading assay, panel of 24 E2s at two fixed DMF concentrations [4]: UbcH7, Ube2W, Ube2T, Ube2S and Ube2R1 being most strongly inhibited
E2 ubiquitin loading assay, panel of 24 E2s at two fixed DMF concentrations [5]: UbcH7, Ube2W, Ube2T, Ube2S and Ube2R1 being most strongly inhibited
E2 ubiquitin loading assay, panel of 24 E2s at two fixed DMF concentrations [6]: UbcH7, Ube2W, Ube2T, Ube2S and Ube2R1 being most strongly inhibited
